Key:
[1] = target: T1, human adrenergic β2 receptor (Homo sapiens, UniProt P07550); assay: Human adrenergic β2 receptor binding assay (3H-CGP12177, Sf9 membranes); conditions: membranes from Sf9 cells, 0.6 nM 3H-CGP12177, 60 minutes at room temperature
T1 construct: purchased Perkin Elmer; host or cells: Sf9 cells
Method: Test 1: Human Adrenergic β1 and β2 Receptor Binding Assays
The study of binding to human adrenergic beta1 and beta2 receptors was performed using commercial membranes prepared from Sf9 cells where they are overexpressed (Perkin Elmer). The membrane suspensions (16 μg/well for beta1 and 5 μg/well for beta2) in assay buffer (75 mM Tris/HCl with 12.5 mM MgCl2 and 2 mM EDTA pH=7.4) were incubated with 0.14 or 0.6 nM of 3H-CGP12177 (Amersham) for beta 1 and beta 2 receptors respectively in a final volume of 250 μl, in GFC Multiscreen 96 well plates (Millipore) previously treated with assay buffer containing 0.3% PEI (Sigma). Non specific binding was measured in the presence of 1 μM propanolol. Incubation was maintained for 60 minutes at room temperature and with gentle shaking. The binding reactions were terminated by filtration and washing with 2.5 volumes of Tris/HCl 50 mM pH=7.4. The affinity of each test compound to the receptor was determined by using ten different concentrations ran in duplicate. IC50s were calculated using Activity Base software from IDBS and the four parameters-log equation.

[2] = target: T2, human muscarinic M3 receptors (Homo sapiens, UniProt P20309); assay: Human muscarinic M3 receptors binding assay ([3H]-NMS, CHO-K1 membranes); conditions: membranes from CHO-K1 cells, [3H]-NMS radioligand, two hours incubation
T2 construct: purchased Perkin Elmer; host or cells: CHO-K1 cells
T2 sequence (P20309 whole entry): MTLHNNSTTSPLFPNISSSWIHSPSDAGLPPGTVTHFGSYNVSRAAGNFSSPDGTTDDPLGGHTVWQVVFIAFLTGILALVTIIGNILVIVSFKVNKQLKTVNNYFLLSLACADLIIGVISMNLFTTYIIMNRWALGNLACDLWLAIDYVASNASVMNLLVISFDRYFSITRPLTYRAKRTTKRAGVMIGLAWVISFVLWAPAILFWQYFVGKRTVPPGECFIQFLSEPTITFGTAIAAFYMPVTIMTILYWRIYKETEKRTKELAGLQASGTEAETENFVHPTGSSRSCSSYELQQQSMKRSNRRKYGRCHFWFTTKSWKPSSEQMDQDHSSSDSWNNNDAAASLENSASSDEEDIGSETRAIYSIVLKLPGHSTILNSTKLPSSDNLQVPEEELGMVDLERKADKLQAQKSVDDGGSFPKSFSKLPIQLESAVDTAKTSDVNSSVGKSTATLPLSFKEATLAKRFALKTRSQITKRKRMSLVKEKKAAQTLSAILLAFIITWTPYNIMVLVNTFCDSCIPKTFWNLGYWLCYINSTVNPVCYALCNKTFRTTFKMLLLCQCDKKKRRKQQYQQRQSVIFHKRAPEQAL
Method: Test 2: Human Muscarinic M3 Receptors Binding Assays
The study of binding to human muscarinic M3 receptors was performed using commercial membranes (Perkin Elmer) prepared from CHO-K1 cells.
Radioligand binding experiments were conducted in 96 polypropylene well plates in a total volume of 200 μl. All reagents were dissolved in assay binding buffer (PBS with calcium and magnesium, SIGMA), except compounds that were dissolved in DMSO 100%. Non-specific binding (NSB) was measured in the presence of 1 μM atropine. [3H]-NM, used as the radioligand was incubated with membranes that express human muscarinic M3 at concentration of 4.9 μg/well.
After an incubation period of two hours with gentle shaking, 150 μl of the reaction mix were transferred to 96 GF/C filter plates (Millipore), previously treated with wash buffer (Tris 50 mM; NaCl 100 mM; pH: 7.4), containing 0.05% PEI (Sigma) during one hour. Bound and free [3H]-NMS were separated by rapid vacuum filtration in a manifold from Millipore and washed four times with ice cold wash buffer. After drying 30 min, 30 μl of OPTIPHASE Supermix were added to each well and radioactivity quantified using a Microbeta microplate scintillation counter.
The affinity of each test compound to the receptor was determined by using ten different concentrations ran in duplicate. IC50s were calculated using Activity Base software from IDBS and the four parameters-log equation.

T1 sequence (P07550 whole entry): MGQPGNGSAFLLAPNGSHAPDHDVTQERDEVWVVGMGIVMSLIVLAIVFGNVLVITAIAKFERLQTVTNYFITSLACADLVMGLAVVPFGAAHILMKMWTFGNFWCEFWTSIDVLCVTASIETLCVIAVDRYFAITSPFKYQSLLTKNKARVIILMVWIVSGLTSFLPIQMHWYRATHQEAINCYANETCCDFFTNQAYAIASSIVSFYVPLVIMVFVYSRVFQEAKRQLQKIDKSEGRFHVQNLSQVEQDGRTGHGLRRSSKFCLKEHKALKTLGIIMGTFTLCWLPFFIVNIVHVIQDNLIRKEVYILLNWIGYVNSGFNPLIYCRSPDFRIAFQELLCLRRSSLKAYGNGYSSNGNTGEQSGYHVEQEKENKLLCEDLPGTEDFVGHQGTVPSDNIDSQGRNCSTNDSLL

| SMILES | IC50 [1] | IC50 [2] |
| --- | --- | --- |
| O=C(O[C@H]1CN2CCC1CC2)C1(c2cccc(CCCCn3c(=O)oc4cc(CNC[C@H](O)c5ccc(O)c6[nH]c(=O)ccc56)ccc43)c2)CCCCC1 [Example 1, (3R)-1-azabicyclo[2.2.2]oct-3-yl 1-(3-{4-[6-({[(2R)-2-hydroxy-2-(8-hydroxy-2-oxo-1,2-dihydroquinolin-5-yl)ethyl]amino}methyl)-2-oxo-1,3-benzoxazol-3(2H)-yl]butyl}phenyl)cyclohexanecarboxylate] | 4.3 nM | 1.6 nM |
| COc1cc(NC(=O)CCCc2cccc(C3(C(=O)O[C@H]4CN5CCC4CC5)CCCCC3)c2)c(Cl)cc1CNC[C@H](O)c1ccc(O)c2[nH]c(=O)ccc12 [Example 2, (3R)-1-azabicyclo[2.2.2]oct-3-yl 1-[3-(4-{[2-chloro-4-({[(2R)-2-hydroxy-2-(8-hydroxy-2-oxo-1,2-dihydroquinolin-5-yl)ethyl]amino}methyl)-5-methoxyphenyl]amino}-4-oxobutyl)phenyl]cyclohexanecarboxylate] | 3 nM | 0.22 nM |
| O=C(CCCc1cccc(C2(C(=O)O[C@H]3CN4CCC3CC4)CCCCC2)c1)N[C@H]1CC[C@H](CNC[C@H](O)c2ccc(O)c3[nH]c(=O)ccc23)CC1 [Example 3, (3R)-1-azabicyclo[2.2.2]oct-3-yl 1-[3-(4-{[trans-4-({[(2R)-2-hydroxy-2-(8-hydroxy-2-oxo-1,2-dihydroquinolin-5-yl)ethyl]amino}methyl)cyclohexyl]amino}-4-oxobutyl)phenyl]cyclohexanecarboxylate] | 4.2 nM | 1.7 nM |
| COc1cc(OCC(=O)N(C)CCCc2cccc(C3(C(=O)O[C@H]4CN5CCC4CC5)CCCCC3)c2)c(Cl)cc1CNC[C@H](O)c1ccc(O)c2[nH]c(=O)ccc12 [Example 4, (3R)-1-azabicyclo[2.2.2]oct-3-yl 1-(3-{3-[{[2-chloro-4-({[(2R)-2-hydroxy-2-(8-hydroxy-2-oxo-1,2-dihydroquinolin-5-yl)ethyl]amino}methyl)-5-methoxyphenoxy]acetyl}(methyl)amino]propyl}phenyl)cyclohexanecarboxylate] | 6.6 nM | 0.74 nM |
| O=C(O[C@H]1CN2CCC1CC2)C1(c2cccc(CCCCn3nnc4cc(CNC[C@H](O)c5ccc(O)c6[nH]c(=O)ccc56)ccc43)c2)CCCCC1 [Example 5, (3R)-1-azabicyclo[2.2.2]oct-3-yl 1-(3-{4-[5-({[(2R)-2-hydroxy-2-(8-hydroxy-2-oxo-1,2-dihydroquinolin-5-yl)ethyl]amino}methyl)-1H-1,2,3-benzotriazol-1-yl]butyl}phenyl)cyclohexanecarboxylate] | 28 nM | 1.1 nM |
| O=C(CCCc1cccc(C2(C(=O)O[C@H]3CN4CCC3CC4)CCCCC2)c1)NCCCCCNC[C@H](O)c1ccc(O)c2[nH]c(=O)ccc12 [Example 7, (3R)-1-azabicyclo[2.2.2]oct-3-yl 1-(3-{4-[(5-{[(2R)-2-hydroxy-2-(8-hydroxy-2-oxo-1,2-dihydroquinolin-5-yl)ethyl]amino}pentyl)amino]-4-oxobutyl}phenyl)cyclo hexanecarboxylate] | 6.7 nM | 1.5 nM |
| COc1cc(C(=O)NCCCCc2cccc(C3(C(=O)O[C@H]4CN5CCC4CC5)CCCCC3)c2)c(Cl)cc1CNC[C@H](O)c1ccc(O)c2[nH]c(=O)ccc12 [Example 9, (3R)-1-azabicyclo[2.2.2]oct-3-yl 1-[3-(4-{[2-chloro-4-({[(2R)-2-hydroxy-2-(8-hydroxy-2-oxo-1,2-dihydroquinolin-5-yl)ethyl]amino}methyl)-5-methoxybenzoyl]amino}butyl)phenyl]cyclohexanecarboxylate] | 3.5 nM | 0.95 nM |
| COc1cc(OCC(=O)OCCCc2cccc(C3(C(=O)O[C@H]4CN5CCC4CC5)CCCCC3)c2)c(Cl)cc1CNC[C@H](O)c1ccc(O)c2[nH]c(=O)ccc12 [Example 10, (3R)-1-azabicyclo[2.2.2]oct-3-yl 1-{3-[3-({[2-chloro-4-({[(2R)-2-hydroxy-2-(8-hydroxy-2-oxo-1,2-dihydroquinolin-5-yl)ethyl]amino}methyl)-5-methoxyphenoxy]acetyl}oxy)propyl]phenyl}cyclohexanecarboxylate] | 7.3 nM | 0.88 nM |
| O=C(CCCc1cccc(C2(C(=O)O[C@H]3CN4CCC3CC4)CCCCC2)c1)Nc1ccc(CNC[C@H](O)c2ccc(O)c3[nH]c(=O)ccc23)nc1 [Example 11, (3R)-1-azabicyclo[2.2.2]oct-3-yl 1-[3-(4-{[6-({[(2R)-2-hydroxy-2-(8-hydroxy-2-oxo-1,2-dihydroquinolin-5-yl)ethyl]amino}methyl)pyridin-3-yl]amino}-4-oxobutyl)phenyl]cyclohexanecarboxylate] | 23 nM | 0.49 nM |
| COc1cc(C(=O)N(C)CCCc2cccc(C3(C(=O)O[C@H]4CN5CCC4CC5)CCCCC3)c2)c(Cl)cc1CNC[C@H](O)c1ccc(O)c2[nH]c(=O)ccc12 [Example 12, (3R)-1-azabicyclo[2.2.2]oct-3-yl 1-(3-{3-[[2-chloro-4-({[(2R)-2-hydroxy-2-(8-hydroxy-2-oxo-1,2-dihydroquinolin-5-yl)ethyl]amino}methyl)-5-methoxybenzoyl](methyl)amino]propyl}phenyl)cyclohexanecarboxylate] | 10 nM | 2.1 nM |
| COc1cc(C(=O)OCCCc2cccc(C3(C(=O)O[C@H]4CN5CCC4CC5)CCCCC3)c2)c(Cl)cc1CNC[C@H](O)c1ccc(O)c2[nH]c(=O)ccc12 [Example 13, 3-[3-(1-{[(3R)-1-azabicyclo[2.2.2]oct-3-yloxy]carbonyl}cyclohexyl)phenyl]propyl 2-chloro-4-({[(2R)-2-hydroxy-2-(8-hydroxy-2-oxo-1,2-dihydroquinolin-5-yl)ethyl]amino}methyl)-5-methoxybenzoate] | 4.4 nM | 0.62 nM |
| COc1cc(OCC(=O)OC2CCC(Cc3cccc(C4(C(=O)O[C@H]5CN6CCC5CC6)CCCCC4)c3)CC2)c(Cl)cc1CNC[C@H](O)c1ccc(O)c2[nH]c(=O)ccc12 (stereo partly drawn) [Example 14, (3R)-1-azabicyclo[2.2.2]oct-3-yl 1-(3-{[4-({[2-chloro-4-({[(2R)-2-hydroxy-2-(8-hydroxy-2-oxo-1,2-dihydroquinolin-5-yl)ethyl]amino}methyl)-5-methoxyphenoxy]acetyl}oxy)cyclohexyl]methyl}phenyl)cyclohexanecarboxylate] | 9 nM | 7.1 nM |
| COc1cc(NC(=O)CCCc2cccc(C3(C(=O)OCC45CCN(CC4)CC5)CCCCC3)c2)c(Cl)cc1CNC[C@H](O)c1ccc(O)c2[nH]c(=O)ccc12 [Example 18, 1-azabicyclo[2.2.2]oct-4-yl methyl 1-[3-(4-{[2-chloro-4-({[(2R)-2-hydroxy-2-(8-hydroxy-2-oxo-1,2-dihydroquinolin-5-yl)ethyl]amino}methyl)-5-methoxyphenyl]amino}-4-oxobutyl)phenyl]cyclohexanecarboxylate] | 2.3 nM | 0.14 nM |
| COc1cc(C(=O)NCCCc2cccc(C3(C(=O)O[C@H]4CN5CCC4CC5)CCCCC3)c2)c(Cl)cc1CNC[C@H](O)c1ccc(O)c2[nH]c(=O)ccc12 [Example 20, (3R)-1-azabicyclo[2.2.2]oct-3-yl 1-[3-(3-{[2-chloro-4-({[(2R)-2-hydroxy-2-(8-hydroxy-2-oxo-1,2-dihydroquinolin-5-yl)ethyl]amino}methyl)-5-methoxybenzoyl]amino}propyl)phenyl]cyclohexanecarboxylate] | 3.8 nM | 0.14 nM |
| O=C(NCCCCc1cccc(C2(C(=O)O[C@H]3CN4CCC3CC4)CCCCC2)c1)c1ccc(CNC[C@H](O)c2ccc(O)c3[nH]c(=O)ccc23)nc1 [Example 21, (3R)-1-azabicyclo[2.2.2]oct-3-yl 1-{3-[4-({[6-({[(2R)-2-hydroxy-2-(8-hydroxy-2-oxo-1,2-dihydroquinolin-5-yl)ethyl]amino}methyl)pyridin-3-yl]carbonyl}amino)butyl]phenyl}cyclohexanecarboxylate] | 34 nM | 0.6 nM |
| COc1cc(C(=O)OCCCCc2cccc(C3(C(=O)O[C@H]4CN5CCC4CC5)CCCCC3)c2)c(Cl)cc1CNC[C@H](O)c1ccc(O)c2[nH]c(=O)ccc12 [Example 22, 4-[3-(1-{[(3R)-1-azabicyclo[2.2.2]oct-3-yloxy]carbonyl}cyclohexyl)phenyl]butyl 2-chloro-4-({[(2R)-2-hydroxy-2-(8-hydroxy-2-oxo-1,2-dihydroquinolin-5-yl)ethyl]amino}methyl)-5-methoxybenzoate] | 7.8 nM | 0.29 nM |

Source: US10005771B2, “Bicyclic derivatives having β2 adrenergic agonist and M3 muscarinic antagonist activities” (Almirall, S.A., priority 2014, dated 2018)
